≈ marks a conversion by molar mass, not a printed value.
Tested on: P388
Test: In vitro evaluation for cytotoxicity against P388 murine leukemia.
Type: functional, cell-based, Mus musculus

| Structure (SMILES) | IC50 (p388) | IC50 (Mus musculus, P388, read-out: IC50) |
| --- | --- | --- |
| COC(=O)[C@]1(C)N=C2C(=O)C=C3N(C(=O)c4cc5cc(OC)c(OC)c(OC)c5[nH]4)C[C@H]4C[C@@]34C2=C1O | 0.002 ng/mL (≈ 0.00394 nM) | – |
| COC(=O)[C@@]1(C)N=C2C(=O)C=C3N(C(=O)c4cc5cc(OC)c(OC)c(OC)c5[nH]4)C[C@@H]4C[C@]34C2=C1O | – | 0.3 ng/mL (≈ 0.591 nM) |

From ChEMBL document CHEMBL1126437, “Synthesis and cytotoxicity of enantiomeric pairs of duocarmycin a and its 2-epimer” (Bioorg Med Chem Lett, 1992)
